In US6793914B2, “Anti-microbial compositions” (Unilever Home & Personal Care USA, division of Conopco, Inc., priority 2000, dated 2004):
Like-named read-outs stand apart in the source and are kept apart here.

Experiments:
[1] = tested on: S. epidermidis; test: Anti-Microbial Test 2: in vitro growth inhibition by chelators (optical density at 600 nm); type: cell-based, Staphylococcus epidermidis (axillary isolate); conditions: chelator 5×10^−5 mol.dm^−3 in semi-synthetic medium pH 6.7, 16 hours at 37° C., relative to control medium
Procedure: The chelators indicated in Table 4 were subjected to the following in vitro test for anti-microbial activity against Staphylococcus Epidermididis.
An axillary isolate of S. epidermidis was grown overnight in 100 ml of tryptone soy broth (TSB, ex Oxoid Ltd.). 10 ml of this culture was taken and subjected to centrifugation. The separated cells were re-suspended in 10 ml of phosphate-buffered saline and the centrifugation procedure repeated. The washed cells were re-suspended in 10 ml of phosphate-buffered saline to give the inoculum.
100 ml of semi-synthetic medium (SSM) [containing (NH4)2SO4 (0.066 g), MgSO4.7H2O (0.012 g), KCl (0.1 g), KH2PO4 (0.27 g), Na2HPO4 (1.43 g), Thiamin (0.1 mg), Biotin (0.05 mg), Peptone P (0.05 g), Glucose (2.0 mmole)] was sterilised by autoclaving at 121° C. for 20 minutes. After sterilisation, the pH was adjusted to 6.7 with HCl to give the control medium. The chelator-containing test media were prepared in a similar manner, the chelator being introduced at a concentration of 5×10^−5 mol.dm^−3, before the pH adjustment with HCl.
100 μl of the inoculum was introduced into each of the test media and the control medium. The cultures were incubated at 37° C. (with agitation at 200 rpm) for 16 hours. After this time, the optical density of the cultures were measured at 600 nm to determine the extent of bacterial growth. By comparing the optical density of the culture in the presence of chelating agent to that of the control, the percentage inhibition of growth was established for each of the chelators. (Optical density measurements were made on 1 in 4 dilutions of the cultures with 0.9% (w/v) saline, using 1 cm path length cuvettes, on a Pharmacia Biotech Ultrospec 200 Spectrophotometer.)

[2] = cited from earlier work; for Log10K (iron (III) binding constant): fully deprotonated chelator, independent of pH
[3] = tested on: Staphylococcus epidermidis; conditions: cited from earlier work
[4] = literature values, 80% or greater reduction in growth over 16 to 24 hours at 37° C.

Compound	Inhibition of growth (%) [1] [%]	iron (III) binding constant ([2]; Critical Stability Constants, Martell and Smith, 1974)	Log10K (iron (III) binding constant) [2]	MIC ([3]; stated by contrast, no source given)	MIC [3, 4]
O=C(O)CC(NCCNC(CC(=O)O)C(=O)O)C(=O)O (mixture of isomers) [EDDS, N,N-ethylenediaminedisuccinic acid, reference compound]	18	10^22	22.0		
O=C(O)CN(CC(=O)O)[C@@H]1CCCC[C@H]1N(CC(=O)O)CC(=O)O (relative stereo) [CDTA, trans-1,2-diaminocyclohexane-N, N,N′,N′-tetraacetic acid]	>70		28.05		
O=C(O)CN(CCN(CC(=O)O)CC(=O)O)CCN(CC(=O)O)CC(=O)O [DTPA, diethylenetriaminepentaacetic acid]	>70		28.6		
O=C(O)C(NCCNC(C(=O)O)c1ccccc1O)c1ccccc1O (centres unmarked) [EDDHA, N,N′-ethylenebis[2-(2-hydroxyphenyl)glycine]]	>70		35.5		
O=C(O)CN(CCN(CC(=O)O)CC(=O)O)CC(=O)O [EDTA, ethylenediaminetetraacetic acid]	>70		25.1		
O=C(O)CN(CCOCCOCCN(CC(=O)O)CC(=O)O)CC(=O)O [EGTA, Ethyleneglycol-O,O′-bis-(2-aminoethyl)-N,N,N′,N′-tetraacetic acid, reference compound]	21		20.5		
O=C(O)CN(CC(=O)O)CC(=O)O [NTA, Nitrilotriacetic acid, reference compound]	6		15.9		
O=C(O)CN(CCN(CCN(CC(=O)O)CC(=O)O)CC(=O)O)CCN(CC(=O)O)CC(=O)O [TTHA, triethylenetetraaminehexaacetic acid]	>70		26.8		
CCO [ethanol]				greater than 1 mg.ml^−1	
CC(C)=CCCC(C)=CCCC(C)=CCO [farnesol, 3,7,11-trimethyldodeca-2,6,10-trienol]					ca. 25 μg.ml^−1
Oc1cc(Cl)ccc1Oc1ccc(Cl)cc1Cl [triclosan, 2′,4,4′-trichloro,2-hydroxy-diphenyl ether]					0.01 to 10 µg/mL
